Activity calls are given as the source filed them. No cut-off for these calls is given here.
Assays:
[1] = target: T1, Adenosine receptor A1 (Homo sapiens) (UniProt P30542); test: Allosteric modulation at human adenosine A1 receptor expressed in CHO FlpIn cells assessed as increase in ERK1/2 phosphorylation at 3 to 10 uM relative to control; type: cell-based
T1 sequence (whole entry): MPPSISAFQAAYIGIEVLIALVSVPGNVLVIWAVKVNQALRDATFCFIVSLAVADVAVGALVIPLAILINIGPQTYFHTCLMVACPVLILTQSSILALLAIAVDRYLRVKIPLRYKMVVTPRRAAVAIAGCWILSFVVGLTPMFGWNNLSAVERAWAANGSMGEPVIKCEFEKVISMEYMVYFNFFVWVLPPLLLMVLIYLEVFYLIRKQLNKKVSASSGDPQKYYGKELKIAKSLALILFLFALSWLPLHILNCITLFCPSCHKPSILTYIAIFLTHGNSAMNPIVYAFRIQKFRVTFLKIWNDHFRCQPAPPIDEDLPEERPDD

[2] = target: T1, Adenosine receptor A1 (Homo sapiens); test: Allosteric modulation at human adenosine A1 receptor expressed in CHO FlpIn cells assessed as increase in EC50 concentration of N(6)-(R-phenylisopropyl)adenosine receptor agonist-induced ERK1/2 phosphorylation at 3 uM relative to control; type: functional, cell-based
[3] = target: T1, Adenosine receptor A1 (Homo sapiens); test: Allosteric modulation at human adenosine A1 receptor expressed in CHO FlpIn cells assessed as increase in EC50 concentration of N(6)-(R-phenylisopropyl)adenosine receptor agonist-induced ERK1/2 phosphorylation at 10 uM relative to control; type: functional, cell-based
[4] = target: T1, Adenosine receptor A1 (Homo sapiens); test: Binding affinity to human adenosine A1 receptor allosteric site expressed in CHO FlpIn cells; type: cell-based
[5] = target: T1, Adenosine receptor A1 (Homo sapiens); test: Allosteric modulation at human adenosine A1 receptor expressed in CHO FlpIn cells assessed as increase in leftward shift of N(6)-(R-phenylisopropyl)adenosine-mediated ERK1/2 phosphorylation curve at 0.1 to 10 uM; type: cell-based

| SMILES | Activity [1] | Activity [2] | Activity [3] | pKb [4] | Activity [5] |
| --- | --- | --- | --- | --- | --- |
| Cc1ccc(C(=O)c2c(N)sc3c2CCCCCC3)cc1 | inactive | 56% | 75% | – | – |
| Nc1sc2c(c1C(=O)NNc1ccccc1)CCCCCC2 | inactive | 47% | 43% | – | – |
| Cc1ccc(C(=O)c2c(N)sc3c2CCCC3)cc1 | Active | 70% | 91% | 5.1 | Active |
| Nc1sc2c(c1C(=O)NNc1ccccc1)CCCCC2 | inactive | 44% | 42% | – | – |
| Nc1sc2c(c1C(=O)c1cccc(C(F)(F)F)c1)CCCCC2 | inactive | 53% | 74% | – | – |
| Nc1sc2c(c1C(=O)NCc1ccccc1)CCCCCC2 | inactive | 48% | 50% | – | – |
| Nc1sc2c(c1C(=O)c1ccccc1)CCCCCC2 | inactive | 49% | 36% | – | – |
| Nc1sc2c(c1C(=O)c1cccc(C(F)(F)F)c1)CCC2 | Active | 75% | 98% | – | – |
| NNC(=O)c1c(N)sc2c1CCCCC2 | inactive | 52% | 51% | – | – |
| Nc1sc2c(c1C(=O)c1cccc(C(F)(F)F)c1)CCCC2 | Active | 73% | 88% | – | – |
| Cc1ccc(C(=O)c2c(N)sc3c2CCCCC3)cc1 | inactive | 55% | 68% | – | – |
| NC(=O)c1c(N)sc2c1CCCCCC2 | inactive | 48% | 48% | – | – |
| NC(=O)c1c(N)sc2c1CCCCC2 | inactive | 47% | 50% | – | – |
| Nc1sc2c(c1C(=O)NCc1cccc(Cl)c1)CCCCCC2 | inactive | 49% | 47% | – | – |
| NNC(=O)c1c(N)sc2c1CCCCCC2 | inactive | 48% | 48% | – | – |
| Cc1ccc(C(=O)c2c(N)sc3c2CCC3)cc1 | inactive | 50% | 56% | – | – |
| Nc1sc2c(c1C(=O)c1ccc(Cl)cc1)CCCCCC2 | Active | 56% | 63% | – | – |
| Nc1sc2c(c1C(=O)c1cccc(C(F)(F)F)c1)CCCCCC2 | inactive | 57% | 65% | 5.07 | Active |

Source: ChEMBL document CHEMBL1777783, “The synthesis and biological evaluation of 2-amino-4,5,6,7,8,9-hexahydrocycloocta[b]thiophenes as allosteric modulators of the A1 adenosine receptor” (Bioorg Med Chem Lett, 2011)
